From ChEMBL document CHEMBL5532671, “Leucosceptrane Sesterterpenoids as a New Type of Natural Immunosuppressive Agents in Treating Sepsis” (J Med Chem, 2024)

Experiments:
T-cell [1] = assay: Inhibition of proliferation of C57BL/6 female mouse T-cells isolated from spleen at 20 uM relative to control; format: functional; settings: for inhibition at 20 µM: C57BL/6, T-cell
T-cell [2] = assay: Immunosuppressive activity in C57BL/6 female mouse T-cells isolated from spleen assessed as inhibition of LPS-induced IFN-gamma secretion at 20 uM treated for 48 hrs by ELISA based assay relative to control; format: functional; settings: for inhibition at 20 µM: C57BL/6, T-cell

| Compound | inhibition at 20 µM (T-cell [1]) | inhibition at 20 µM (T-cell [2]) | inhibition (T-cell [1]) | inhibition (T-cell [2]) |
| --- | --- | --- | --- | --- |
| CC(C)=C[C@H]1O[C@@](C)(CC[C@@H]2OC(=O)C=C2C)[C@@H]2C(=O)[C@@]3(OO)[C@@H](C)CC[C@H]3[C@H](C)[C@@]21O | 11.8% | 29.9% |  |  |
| CC(C)=CC(=O)[C@@]1(O)[C@@H](C)[C@@H]2CC[C@H](C)[C@H]2C(=O)[C@@]12OC(=O)C[C@@H]2C | < 10% | 39.6% |  |  |
| CC(C)=C[C@H]1O[C@@](C)(CC[C@@H]2OC(=O)C=C2C)[C@@H]2C(=O)[C@@]3(O)[C@@H](C)CC[C@H]3[C@H](C)[C@@]21O | 13.2% | 39.1% |  |  |
| CC(C)=C[C@H]1O[C@@](C)(C/C=C2\OC(=O)C=C2C)[C@@H]2C(=O)[C@]3(O)[C@@H](C)CC[C@H]3[C@H](C)[C@@]21O | < 10% | 45.4% |  |  |
| CC(C)=C[C@H]1O[C@@]2(C)C[C@H](c3occc3C)O[C@]13[C@H]2C(=O)[C@H]1[C@@H](CC[C@@H]1C)[C@@H]3C | 13.6% | 49.7% |  |  |
| CC(C)=C[C@H]1O[C@@](C)(CC[C@@]2(O)OC(=O)C=C2C)[C@@H]2C(=O)[C@@H]3[C@@H](CC[C@@H]3C)[C@H](C)[C@@]21O | 15.3% | 47.5% |  |  |
| CC(C)=C[C@H]1O[C@@](C)(CC(=O)O)C2=C1[C@@H](C)[C@@H]1CC[C@H](C)[C@H]1C2=O | 25% | 39.9% |  |  |
| CCC(=O)CC[C@H](C)[C@@]1(O)C(=O)[C@H]2[C@@H](CC[C@@H]2C)[C@H](C)[C@]1(O)C(=O)C=C(C)C | < 10% | 32.6% |  |  |
| CC(C)=C[C@H]1O[C@@]2(C)C[C@H]([C@H]3NC(=O)C=C3C)O[C@]13[C@H]2C(=O)[C@H]1[C@@H](CC[C@@H]1C)[C@@H]3C | 13.1% | 43.1% |  |  |
| CC(C)=C[C@H]1O[C@@](C)(CC[C@@]2(O)OC(=O)C=C2C)C2=C1[C@@H](C)[C@@H]1CC[C@H](C)[C@@]1(O)C2=O | < 10% | 36.8% |  |  |
| CC(C)=C[C@H]1O[C@@](C)(CC[C@@H]2OC(=O)C=C2C)C2=C1[C@@H](C)[C@@H]1CC[C@H](C)[C@@H]1C2=O | < 10% | 31.3% |  |  |
| CC(C)=C[C@H]1O[C@@](C)(CCO)C2=C1[C@@H](C)[C@@H]1CC[C@H](C)[C@]1(O)C2=O | < 10% | 39.6% |  |  |
| CC(C)=CC(=O)[C@@]1(O)[C@@H](C)[C@@H]2CC[C@H](C)[C@H]2C(=O)[C@]1(O)[C@H](C)CC[C@]1(O)OC(=O)C=C1C | 11.7% | 41.3% |  |  |
| CC(C)=C[C@H]1O[C@@](C)(C/C=C2\NC(=O)C=C2C)[C@@H]2C(=O)[C@H]3[C@@H](CC[C@@H]3C)[C@H](C)[C@@]21O | < 10% | 16.9% |  |  |
| Norleucosceptroid K |  |  | 12.1% | 33.6% |
| CC(C)=C[C@H]1O[C@@](C)(CC[C@@H]2OC(=O)C=C2C)[C@@H]2C(=O)[C@@H]3[C@@H](CC[C@@H]3C)[C@H](C)[C@@]21O | 25.4% | 37.1% |  |  |
| CC(C)=CC(=O)[C@]12O[C@@H]([C@]3(O)OC(=O)C=C3C)C[C@H](C)[C@@]1(O)C(=O)[C@H]1[C@@H](CC[C@@H]1C)[C@@H]2C | < 10% | 36.9% |  |  |
| CC(C)=C[C@H]1O[C@@](C)(CCC(=O)O)C2=C1[C@@H](C)[C@@H]1CC[C@H](C)[C@]1(O)C2=O | 20.2% | 37.9% |  |  |
| CC(C)=CC(=O)[C@]12O[C@]3(CC[C@H](C)[C@@]1(O)C(=O)[C@H]1[C@@H](CC[C@@H]1C)[C@@H]2C)OC(=O)C=C3C | < 10% | 43.3% |  |  |
| CC(C)=CC(=O)[C@@]1(O)[C@@H](C)[C@@H]2CC[C@H](C)[C@H]2C(=O)[C@]1(O)[C@@H](C)CCc1occc1C | < 10% | 41.6% |  |  |
